Target: T1, integrin α4β7 (Homo sapiens, UniProt P13612+P26010)
T1 sequence (P13612 34-977 limits assumed): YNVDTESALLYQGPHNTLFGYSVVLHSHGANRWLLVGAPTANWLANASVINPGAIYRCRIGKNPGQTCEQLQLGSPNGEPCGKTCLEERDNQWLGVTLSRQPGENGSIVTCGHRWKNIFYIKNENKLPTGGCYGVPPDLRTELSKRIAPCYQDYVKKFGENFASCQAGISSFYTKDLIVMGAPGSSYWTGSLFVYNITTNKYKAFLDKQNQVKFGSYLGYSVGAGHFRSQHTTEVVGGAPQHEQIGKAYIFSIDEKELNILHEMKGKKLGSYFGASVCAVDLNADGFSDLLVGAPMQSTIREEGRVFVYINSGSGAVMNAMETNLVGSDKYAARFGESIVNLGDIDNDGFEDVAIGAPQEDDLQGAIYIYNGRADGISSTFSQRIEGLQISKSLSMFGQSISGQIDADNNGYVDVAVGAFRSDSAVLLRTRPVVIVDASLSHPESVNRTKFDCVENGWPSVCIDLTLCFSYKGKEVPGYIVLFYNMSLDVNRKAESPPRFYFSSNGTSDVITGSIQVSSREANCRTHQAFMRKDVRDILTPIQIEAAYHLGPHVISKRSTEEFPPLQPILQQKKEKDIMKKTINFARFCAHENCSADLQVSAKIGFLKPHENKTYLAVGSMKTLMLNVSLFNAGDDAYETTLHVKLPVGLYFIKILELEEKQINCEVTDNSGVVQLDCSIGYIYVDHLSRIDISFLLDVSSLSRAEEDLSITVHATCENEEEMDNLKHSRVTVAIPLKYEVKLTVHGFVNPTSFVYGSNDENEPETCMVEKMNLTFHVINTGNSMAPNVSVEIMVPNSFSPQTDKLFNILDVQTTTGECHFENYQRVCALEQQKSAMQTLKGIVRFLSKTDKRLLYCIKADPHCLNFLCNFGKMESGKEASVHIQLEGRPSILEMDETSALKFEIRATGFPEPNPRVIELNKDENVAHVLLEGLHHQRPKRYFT
T1 sequence (P26010 20-723 limits assumed): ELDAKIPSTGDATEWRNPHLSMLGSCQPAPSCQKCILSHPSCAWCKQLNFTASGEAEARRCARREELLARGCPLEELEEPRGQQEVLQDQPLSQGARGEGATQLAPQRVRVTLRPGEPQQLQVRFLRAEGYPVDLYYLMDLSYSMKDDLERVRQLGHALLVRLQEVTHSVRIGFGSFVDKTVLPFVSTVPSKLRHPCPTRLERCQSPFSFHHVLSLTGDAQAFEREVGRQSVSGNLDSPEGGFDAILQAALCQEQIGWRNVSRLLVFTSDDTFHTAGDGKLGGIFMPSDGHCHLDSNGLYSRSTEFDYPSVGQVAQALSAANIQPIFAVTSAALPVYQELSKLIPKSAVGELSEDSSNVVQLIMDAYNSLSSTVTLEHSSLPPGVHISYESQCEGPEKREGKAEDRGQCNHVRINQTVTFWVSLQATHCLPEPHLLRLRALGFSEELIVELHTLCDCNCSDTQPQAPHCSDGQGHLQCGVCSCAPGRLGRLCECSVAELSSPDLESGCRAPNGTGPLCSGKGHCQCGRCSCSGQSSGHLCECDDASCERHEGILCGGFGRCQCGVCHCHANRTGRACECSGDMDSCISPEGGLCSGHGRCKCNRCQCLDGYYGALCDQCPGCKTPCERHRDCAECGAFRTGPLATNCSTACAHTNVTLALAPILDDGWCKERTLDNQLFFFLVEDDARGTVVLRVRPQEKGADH
Assay: Integrin α4β7—MAdCAM-1 competition assay (ELISA)
Assay type: binding
Conditions: ratio a4b1 ELISA IC50 / a4b7 ELISA IC50
Method: Integrin α4β7—MAdCAM-1 Competition Assay
The plate was incubated at 4° C. overnight. […] The plate was then incubated for 1 hour at room temperature. The plate was washed three times with wash buffer (50 mM Tris, 100 mM NaCl, 1 mM MnCl2, 0.05% Tween). To each well, 50 μl of compound diluted in assay buffer was added by transfer from a compound serial dilution plate. […] The plate was incubated at room temperature with shaking for 2 hours to reach binding equilibrium. Then the plate was washed three times in wash buffer and 100 μl anti-human IgG Fc specific-horseradish peroxidase (HRP) (Abcam, Ab97225) diluted at 1:2000 in assay buffer was added to each well. The plate was incubated at room temperature for 1 hour under agitation. The plates were then washed three times and 100 μl of 1,3′,5,5′-tetramethylbenxidie (TMB) was then added to each well.

| Compound | Selectivity ELISA |
| --- | --- |
| CC(C)C[C@@H]1NC(=O)C2(CCCC2)NC(=O)[C@H](Cc2ccc(O)cc2)NC(=O)[C@@H]2CCCN2[C@H](C(=O)NC(C)(C)C)[C@H](C)NC(=O)[C@H]([C@@H](C)O)NC(=O)[C@H](CC(=O)O)NC1=O [Compound 104] | 4.2 |
| CC(C)C[C@@H]1NC(=O)c2ccc(-c3cccc(CN)c3)c(c2)CNC(=O)[C@@H]2CCCN2[C@H](C(=O)NC(C)(C)C)[C@H](C)NC(=O)[C@H]([C@@H](C)O)NC(=O)[C@H](CC(=O)O)NC1=O [Compound 382] | 2.0 |
| C=CCOc1ccc(C[C@@H]2NC(=O)[C@@H]3CCCN3[C@H](C(=O)NC(C)(C)C)[C@H](C)NC(=O)[C@H]([C@@H](C)O)NC(=O)[C@H](CC(=O)O)NC(=O)[C@H](CC(C)C)NC(=O)[C@@H](CO)NC2=O)cc1 [Compound 167] | 13.6 |
| CC(C)C[C@@H]1NC(=O)CN(C)C(=O)[C@H](Cc2ccc(-c3ccccc3)cc2)NC(=O)[C@@H]2CCCN2[C@H](C(=O)NC(C)(C)C)[C@H](C)NC(=O)[C@H]([C@@H](C)O)NC(=O)[C@H](CC(=O)O)NC1=O [Compound 116] | 8.4 |
| COc1ccc(-c2ccccc2C[C@@H]2NC(=O)[C@@H]3CCCN3[C@H](C(=O)NC(C)(C)C)[C@H](C)NC(=O)[C@H]([C@@H](C)O)NC(=O)[C@H](CC(=O)O)NC(=O)[C@H](CC(C)C)NC(=O)[C@H]3CCCCN3C2=O)cc1 [Compound 137] | 7.8 |
| CO[C@H](C)[C@@H]1NC(=O)[C@H](CC(=O)O)NC(=O)[C@H](CC(C)C)NC(=O)[C@H](Cc2ccccc2)NC(=O)[C@@H]2CCCN2[C@H](C(=O)NC(C)(C)C)[C@H](C)NC1=O [Compound 40] | 1.9 |
| CC(C)C[C@@H]1NC(=O)[C@H]2CCCCN2C(=O)[C@H](Cc2cccc3ccccc23)NC(=O)[C@@H]2CCCN2[C@H](C(=O)NC(C)(C)C)[C@H](C)NC(=O)[C@H]([C@@H](C)O)NC(=O)[C@H](CC(=O)O)NC1=O [Compound 143] | 2.1 |
| CC(C)C[C@@H]1NC(=O)[C@H](C2CCCCC2)NC(=O)[C@@H]2CCCN2[C@H](C(=O)NC(C)(C)C)[C@H](C)NC(=O)[C@H]([C@@H](C)O)NC(=O)[C@H](CC(=O)O)NC1=O [Compound 91] | 14.5 |
| CC(C)C[C@@H]1NC(=O)c2ccc(Br)c(c2)CNC(=O)[C@H](Cc2ccc(O)cc2)NC(=O)[C@@H]2CCCN2[C@H](C(=O)NC(C)(C)C)[C@H](C)NC(=O)[C@H]([C@@H](C)O)NC(=O)[C@H](CC(=O)O)NC1=O [Compound 336] | 5.6 |
| CC[C@H](C)[C@@H]1NC(=O)[C@H](CC(=O)O)NC(=O)[C@H](CC(C)C)NC(=O)C[C@@H](CCCCN)NC(=O)[C@H](Cc2ccccc2)NC(=O)[C@@H]2CCCN2[C@H](C(=O)NC(C)(C)C)[C@H](C)NC1=O [Compound 220] | 18.2 |
| CC(C)C[C@@H]1NC(=O)CN(C)C(=O)[C@H](Cc2csc(-c3ccccn3)n2)NC(=O)[C@@H]2CCCN2[C@H](C(=O)NC(C)(C)C)[C@H](C)NC(=O)[C@H]([C@@H](C)O)NC(=O)[C@H](CC(=O)O)NC1=O [Compound 179] | 15.2 |
| C[C@@H]1NC(=O)[C@H]([C@@H](C)O)NC(=O)[C@H](CC(=O)O)NC(=O)[C@H](CC(C)(C)C)NC(=O)c2ccc(-c3ccnc4ccccc34)c(c2)CNC(=O)[C@@H]2CCCN2[C@@H]1C(=O)NC(C)(C)C [Compound 355] | 1.4 |
| CC(C)C[C@@H]1NC(=O)C[C@H](CCCCN)NC(=O)[C@H](Cc2ccc(I)cc2)NC(=O)[C@@H]2CCCN2[C@H](C(=O)NC(C)(C)C)[C@H](C)NC(=O)[C@H]([C@@H](C)O)NC(=O)[C@H](CC(=O)O)NC1=O [Compound 260] | 58.1 |
| CC(C)C[C@@H]1NC(=O)C[C@H](CCCCN)NC[C@H](Cc2ccc(CN)cc2)NC(=O)[C@@H]2CCCN2[C@H](C(=O)NC(C)(C)C)[C@H](C)NC(=O)[C@H]([C@@H](C)O)NC(=O)[C@H](CC(=O)O)NC1=O [Compound 218] | 16.5 |
| CC(C)C[C@@H]1NC(=O)C[C@H](CCCCN)NC(=O)[C@](C)(Cc2ccccc2)NC(=O)[C@@H]2CCCN2[C@H](C(=O)NC(C)(C)C)[C@H](C)NC(=O)[C@H]([C@@H](C)O)NC(=O)[C@H](CC(=O)O)NC1=O [Compound 263] | 23.1 |
| CC(C)C[C@@H]1NC(=O)[C@H](Cc2ccccc2)NC(=O)[C@@H]2C[C@@H](F)CN2[C@H](C(=O)NC(C)(C)C)[C@H](C)NC(=O)[C@H]([C@@H](C)O)NC(=O)[C@H](CC(=O)O)NC1=O [Compound 45] | 3.2 |
| Cc1cccc(C)c1-c1cccc(C[C@@H]2NC(=O)[C@@H]3CCCN3[C@H](C(=O)NC(C)(C)C)[C@H](C)NC(=O)[C@H]([C@@H](C)O)NC(=O)[C@H](CC(=O)O)NC(=O)[C@H](CC(C)C)NC(=O)C[C@H](CCCCN)NC2=O)c1 [Compound 265] | 46.2 |
| CC(C)C[C@@H]1NC(=O)c2ccc(-c3ccncc3)c(c2)CNC(=O)[C@H](Cc2ccc(O)cc2)NC(=O)[C@@H]2CCCN2[C@H](C(=O)NC(C)(C)C)[C@H](C)NC(=O)[C@H]([C@@H](C)O)NC(=O)[C@H](CC(=O)O)NC1=O [Compound 337] | 2.9 |
| CC(C)C[C@@H]1NC(=O)[C@H]2C[C@H](O)CN2C(=O)[C@H](Cc2ccc(O)cc2)NC(=O)[C@@H]2CCCN2[C@H](C(=O)NC(C)(C)C)[C@H](C)NC(=O)[C@H]([C@@H](C)O)NC(=O)[C@H](CC(=O)O)NC1=O [Compound 140] | 9.6 |
| CC(C)C[C@@H]1NC(=O)[C@H](Cc2ccc3ccccc3c2)NC(=O)[C@@H]2CCCN2[C@H](C(=O)NC(C)(C)C)[C@H](C)NC(=O)[C@H]([C@@H](C)O)NC(=O)[C@H](CC(=O)O)NC1=O [Compound 10] | 1.3 |
| C[C@@H]1NC(=O)[C@H]([C@@H](C)O)NC(=O)[C@H](CC(=O)O)NC(=O)[C@H](CC(C)(C)C)NC(=O)[C@H]2CCCCN2C(=O)[C@H](Cc2ccc(O)cc2)NC(=O)[C@@H]2CCCN2[C@@H]1C(=O)NC(C)(C)C [Compound 150] | 8.2 |
| CC[C@@H](C)[C@@H]1NC(=O)[C@H](CC(=O)O)NC(=O)[C@H](CC(C)C)NC(=O)C[C@H](CCCCN)NC(=O)[C@H](Cc2ccc(CN)cc2)NC(=O)[C@@H]2CCCN2[C@H](C(=O)NC(C)(C)C)[C@H](C)NC1=O [Compound 285] | 6.2 |
| CC(C)C[C@@H]1NC(=O)[C@H]2c3ccccc3CCN2C(=O)[C@@H]2CCCN2[C@H](C(=O)NC(C)(C)C)[C@H](C)NC(=O)[C@H]([C@@H](C)O)NC(=O)[C@H](CC(=O)O)NC1=O [Compound 98] | 2.7 |
| CC(C)C[C@@H]1NC(=O)[C@@H]2C[C@@H](OCc3ccccc3)CN2C(=O)[C@@H]2CCCN2[C@H](C(=O)NC(C)(C)C)[C@H](C)NC(=O)[C@H]([C@@H](C)O)NC(=O)[C@H](CC(=O)O)NC1=O [Compound 57] | 2.5 |
| CC(C)C[C@@H]1NC(=O)[C@H]2CCCN2C(=O)[C@H](Cc2cc(Br)c(O)c(Br)c2)NC(=O)[C@@H]2CCCN2[C@H](C(=O)NC(C)(C)C)[C@H](C)NC(=O)[C@H]([C@@H](C)O)NC(=O)[C@H](CC(=O)O)NC1=O [Compound 129] | 9.7 |
